Assays:
CAL-72 (Osteosarcoma) [1] = assay: Bliss excess, mean over the matrix (fraction); higher = more synergy
How it was run: (§1)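 Cell lines in DMEM/F12 or RPMI with 10% FBS were plated in 1536-well plates, held 24 hours at 37°C, 5% CO2, then given two-drug dose matrices for 72 hours (DMSO typically 0.2%). Viability was read by CellTiter-Glo 2.0 luminescence and scaled as inhibition from 0 (vehicle wells) to 1 (blank wells). Combination Emax is the second-highest inhibition in the matrix; Bliss excess is observed combination effect minus expected EA + EB − EA·EB, EA and EB being single-agent effects.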

[2] = tested on: Detroit562 (Head and Neck Carcinoma); assay: as above
How it was run: as §1

EW-11 (Ewing's Sarcoma) = assay: as above
How it was run: as §1

[3] = tested on: KMRC-20 (Kidney Carcinoma); assay: as above
How it was run: as §1

[4] = tested on: KYAE-1 (Esophageal Adenocarcinoma); assay: as above
How it was run: as §1

[5] = tested on: LCLC-97TM1 (Non-Small Cell Lung Carcinoma); assay: as above
How it was run: as §1

LOXIMVI (Melanoma) [6] = assay: as above
How it was run: as §1

MPP-89 (Mesothelioma) = assay: as above
How it was run: as §1

NCI-H2052 (Mesothelioma) = assay: as above
How it was run: as §1

NCI-H2722 (Mesothelioma) = assay: as above
How it was run: as §1

[7] = tested on: OE21 (Esophageal Squamous Cell Carcinoma); assay: as above
How it was run: as §1

[8] = tested on: OV-56 (Ovarian Carcinoma); assay: as above
How it was run: as §1

[9] = tested on: OVCAR-5 (Ovarian Carcinoma); assay: as above
How it was run: as §1

[10] = tested on: SAS (Oral Cavity Carcinoma); assay: as above
How it was run: as §1

[11] = tested on: SW1710 (Bladder Carcinoma); assay: as above
How it was run: as §1

CAL-72 (Osteosarcoma) [12] = assay: combination Emax (second highest fraction inhibited in the dose matrix, 72 h); higher = more inhibition; extreme values may be limits of the assay
How it was run: as §1

[13] = tested on: HuH-7 (Hepatocellular Carcinoma); assay: as above
How it was run: as §1

[14] = tested on: KMRC-20 (Kidney Carcinoma); assay: as above
How it was run: as §1

LOXIMVI (Melanoma) [15] = assay: as above
How it was run: as §1

[16] = tested on: OE21 (Esophageal Squamous Cell Carcinoma); assay: as above
How it was run: as §1
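Throughout, for Bliss excess, mean over the matrix: after 72 h of two-drug dosing.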

Row | Compound | Bliss excess (CAL-72 (Osteosarcoma) [1]) | Bliss excess [2] | Bliss excess (EW-11 (Ewing's Sarcoma)) | Bliss excess [3] | Bliss excess [4] | Bliss excess [5] | Bliss excess (LOXIMVI (Melanoma) [6]) | Bliss excess (MPP-89 (Mesothelioma)) | Bliss excess (NCI-H2052 (Mesothelioma)) | Bliss excess (NCI-H2722 (Mesothelioma)) | Bliss excess [7] | Bliss excess [8] | Bliss excess [9] | Bliss excess [10] | Bliss excess [11] | combination Emax (CAL-72 (Osteosarcoma) [12]) | combination Emax [13] | combination Emax [14] | combination Emax (LOXIMVI (Melanoma) [15]) | combination Emax [16]
1 | CS(=O)(=O)CCNCc1ccc(-c2ccc3ncnc(Nc4ccc(OCc5cccc(F)c5)c(Cl)c4)c3c2)o1 [Lapatinib] + C[C@@H](Oc1cc(-c2cnn(C3CCNCC3)c2)cnc1N)c1c(Cl)ccc(F)c1Cl [Crizotinib] (first compound max 10 µM, 7x7, partner max 10 µM) | -0.0926 | 0.0107 | -0.0233 | -0.116 | -0.0171 | -0.0093 | -0.0505 | -0.0762 | -0.0676 | -0.0713 | 0.0006 | 0.0056 | -0.0818 | -0.0346 | -0.078 | 0.906 | 0.925 | 0.916 | 0.977 | 0.936
2 | CC(=O)c1c(C)c2cnc(Nc3ccc(N4CCNCC4)cn3)nc2n(C2CCCC2)c1=O [Palbociclib] + CC1(C)CCC(CN2CCN(c3ccc(C(=O)NS(=O)(=O)c4ccc(NCC5CCOCC5)c([N+](=O)[O-])c4)c(Oc4cnc5[nH]ccc5c4)c3)CC2)=C(c2ccc(Cl)cc2)C1 [Venetoclax] (first compound max 10 µM, 7x7, partner max 1 µM) | -0.0439 | 0.0008 | -0.0083 | -0.03 | -0.023 | -0.0231 | -0.0045 | -0.0484 | -0.0432 | -0.0485 | 0.0309 | -0.0448 | -0.0018 | 0.014 | 0.0152 | 0.345 | 0.0832 | 0.214 | 0.515 | 0.229
3 | CC(=O)c1c(C)c2cnc(Nc3ccc(N4CCNCC4)cn3)nc2n(C2CCCC2)c1=O [Palbociclib] + Cc1c2c(nn1C)CSCc1cc(n(C)n1)CSc1cc(c3ccccc3c1)OCCCc1c(C(=O)O)n(C)c3c-2c(Cl)ccc13 [AZD5991] (first compound max 10 µM, 7x7, partner max 1 µM) | -0.0073 | -0.0131 | 0.0284 | -0.0782 | 0.0035 | -0.0149 | -0.0325 | -0.021 | -0.0298 | -0.0649 | -0.0088 | -0.0824 | -0.0406 | -0.0318 | -0.0405 | 0.441 | 0.215 | 0.291 | 0.543 | 0.393
4 | CC(=O)c1c(C)c2cnc(Nc3ccc(N4CCNCC4)cn3)nc2n(C2CCCC2)c1=O [Palbociclib] + Cn1cnc2c(F)c(Nc3ccc(Br)cc3Cl)c(C(=O)NOCCO)cc21 [Selumetinib] (first compound max 10 µM, 7x7, partner max 10 µM) | 0.0683 | -0.0041 | -0.0298 | -0.0534 | -0.0125 | 0.0728 | 0.0724 | -0.0394 | -0.0124 | -0.069 | 0.0877 | -0.0587 | -0.0041 | -0.0084 | 0.0054 | 0.361 | 0.344 | 0.158 | 0.744 | 0.54
5 | COc1cccc(OCCCN)c1-c1cc(Nc2cnc(C#N)cn2)n[nH]1 [Prexasertib] + C=CCn1c(=O)c2cnc(Nc3ccc(N4CCN(C)CC4)cc3)nc2n1-c1cccc(C(C)(C)O)n1 [AZD1775] (first compound max 1 µM, partner max 1 µM) | 0.0055 | 0.0416 | -0.0815 | -0.0104 | 0.103 | 0.057 | 0.0467 | 0.0912 | 0.0221 | 0.0156 | -0.0663 | -0.0015 | 0.044 | 0.0405 | 0.12 | 0.891 | 0.438 | 0.885 | 0.859 | 0.733
6 | COc1cccc(OCCCN)c1-c1cc(Nc2cnc(C#N)cn2)n[nH]1 [Prexasertib] + CCc1c2c(nc3ccc(O)cc13)-c1cc3c(c(=O)n1C2)COC(=O)[C@]3(O)CC [SN-38] (first compound max 1 µM, 7x7, partner max 0.3 µM) | -0.0158 | 0.055 | -0.153 | -0.0215 | 0.102 | 0.0863 | -0.0455 | 0.0256 | -0.0138 | -0.0565 | -0.0509 | 0.009 | -0.0162 | -0.0246 | 0.0504 | 0.949 | 0.861 | 0.982 | 0.875 | 0.813
7 | COc1cccc(OCCCN)c1-c1cc(Nc2cnc(C#N)cn2)n[nH]1 [Prexasertib] + CN(C)CCCOc1ccc(-c2ccc3ncc4c(c3c2)n(C2CCOCC2)c(=O)n4C)cn1 [AZD0156] (first compound max 1 µM, 7x7, partner max 1 µM) | -0.0922 | -0.014 | -0.0705 | -0.0382 | 0.0184 | -0.0439 | 0.0398 | -0.0242 | -0.025 | 0.0073 | -0.0949 | -0.0442 | -0.0273 | 0.0109 | -0.022 | 0.847 | 0.347 | 0.924 | 0.862 | 0.726
8 | COc1cccc(OCCCN)c1-c1cc(Nc2cnc(C#N)cn2)n[nH]1 [Prexasertib] + C[C@@H]1COCCN1C2=NC(=NC(=C2)C3(CC3)[S@](=N)(=O)C)C4=C5C=CNC5=NC=C4 [AZD6738] (first compound max 1 µM, 7x7, partner max 10 µM) | -0.0244 | -0.0311 | 0.0197 | 0.0013 | 0.0651 | -0.0351 | -0.0165 | -0.0232 | -0.0282 | -0.002 | 0.0084 | 0.0148 | 0.0185 | 0.0203 | 0.0092 | 0.869 | 0.34 | 0.881 | 0.849 | 0.745
9 | COc1cccc(OCCCN)c1-c1cc(Nc2cnc(C#N)cn2)n[nH]1 [Prexasertib] + Cc1cc2ncnn2cc1Nc1ncc2c(n1)n(C1CCOCC1)c(=O)n2C [AZD7648] (first compound max 1 µM, 7x7, partner max 10 µM) | -0.112 | -0.0342 | -0.0303 | -0.0474 | 0.0382 | -0.0411 | 0.0017 | -0.0104 | -0.0349 | -0.012 | -0.0116 | -0.0467 | -0.0016 | -0.0247 | -0.045 | 0.994 | 0.329 | 0.858 | 0.784 | 0.788
10 | COc1cccc(OCCCN)c1-c1cc(Nc2cnc(C#N)cn2)n[nH]1 [Prexasertib] + O=C(c1cc(Cc2n[nH]c(=O)c3ccccc23)ccc1F)N1CCN(C(=O)C2CC2)CC1 [Olaparib] (first compound max 1 µM, 7x7, partner max 10 µM) | -0.135 | -0.0467 | -0.0849 | -0.0735 | 0.0116 | -0.0381 | -0.0372 | -0.0227 | -0.0332 | -0.0088 | -0.0499 | -0.0739 | -0.17 | -0.0104 | -0.0857 | 0.81 | 0.3 | 0.893 | 0.788 | 0.678
11 | CCc1c2c(nc3ccc(O)cc13)-c1cc3c(c(=O)n1C2)COC(=O)[C@]3(O)CC [SN-38] + CN(C)CCCOc1ccc(-c2ccc3ncc4c(c3c2)n(C2CCOCC2)c(=O)n4C)cn1 [AZD0156] (first compound max 0.3 µM, 7x7, partner max 1 µM) | 0.0114 | 0.118 | -0.012 | -0.0156 | -0.0188 | -0.0059 | 0.0017 | 0.0342 | -0.0409 | -0.0318 | -0.0243 | 0.0154 | -0.0235 | 0.0781 | 0.0111 | 0.774 | 0.149 | 0.827 | 0.784 | 0.678
12 | Cn1cnc2c(F)c(Nc3ccc(Br)cc3Cl)c(C(=O)NOCCO)cc21 [Selumetinib] + C=CCn1c(=O)c2cnc(Nc3ccc(N4CCN(C)CC4)cc3)nc2n1-c1cccc(C(C)(C)O)n1 [AZD1775] (first compound max 10 µM, partner max 1 µM) | -0.117 | 0.0123 | -0.0464 | -0.0682 | -0.0019 | -0.0335 | 0.0822 | -0.0131 | -0.0747 | -0.046 | -0.0399 | -0.0766 | -0.0074 | 0.0324 | -0.0409 | 0.519 | 0.327 | 0.567 | 0.854 | 0.683
13 | Cn1cnc2c(F)c(Nc3ccc(Br)cc3Cl)c(C(=O)NOCCO)cc21 [Selumetinib] + CC(C)n1c(=O)n(C)c2cnc3cc(F)c(-c4ccc(OCCCN5CCCCC5)nc4)cc3c21 [AZD1390] (first compound max 10 µM, 7x7, partner max 0.3 µM) | -0.0484 | 0.003 | -0.0399 | -0.0458 | -0.026 | 0.0069 | -0.0098 | -0.069 | -0.0242 | -0.0678 | 0.014 | -0.0526 | 0.0017 | -0.0146 | -0.059 | 0.165 | 0.275 | 0.131 | 0.658 | 0.386
14 | Cn1cnc2c(F)c(Nc3ccc(Br)cc3Cl)c(C(=O)NOCCO)cc21 [Selumetinib] + CCN(CCO)CCCOc1ccc2c(Nc3cc(CC(=O)Nc4cccc(F)c4)[nH]n3)ncnc2c1 [AZD2811] (first compound max 10 µM, 7x7, partner max 1 µM) | -0.0369 | 0.0685 | -0.0705 | -0.059 | -0.0212 | 0.0594 | 0.012 | -0.0325 | -0.0388 | -0.0834 | 0.0238 | -0.0677 | -0.0054 | -0.0274 | -0.0548 | 0.181 | 0.293 | 0.29 | 0.683 | 0.441
15 | Cn1cnc2c(F)c(Nc3ccc(Br)cc3Cl)c(C(=O)NOCCO)cc21 [Selumetinib] + C[C@@H]1COCCN1C2=NC(=NC(=C2)C3(CC3)[S@](=N)(=O)C)C4=C5C=CNC5=NC=C4 [AZD6738] (first compound max 10 µM, 7x7, partner max 10 µM) | -0.0387 | -0.0438 | -0.0605 | -0.0496 | -0.0243 | -0.0043 | 0.0322 | -0.0424 | 0.0119 | -0.0455 | 0.0134 | -0.0239 | -0.0236 | -0.012 | -0.0481 | 0.752 | 0.374 | 0.441 | 0.778 | 0.837

Source: the supplement of paper PMC11061612
